Data published in patent publication US9376454B2, “Beta-lactamase inhibitors” (priority 2013, dated 2016).
pIC50: −log10 of the molar value.

Tests used:
Format in all cases: biochemical
[1] = molecular target: T1, OXA-1 β-lactamase (Escherichia coli, UniProt P13661); assay: β-Lactamase inhibition enzyme assay, OXA-1; details: Nitrocefin 100 μM as substrate, 486 nm; 15 min at 37° C. with enzyme, PBS pH 7.4; read-out: Class D OXA-1 IC50
T1 construct: made in house; host or cells: E. coli BL21(DE3)
Method: (§1) For SHV-5, Kpc-2, p99AmpC and OXA-1 β-lactamases, E. coli BL21(DE3) bacterial cells carrying expression plasmids (expressed as native untagged proteins) for the individual β-lactamases were grown in 1 L of Superbroth (Teknova Inc. Hollister, Calif.) supplemented with 100 μg/ml kanamycin selection and 1×5052 (0.5% glycerol, 0.05% glucose and 0.2% α-lactose) at 35° C. for 18-20 hours. Cells were harvested by centrifugation (4,000×g, 4° C., 20 min), resuspended in 50 ml of 10 mM HEPES pH 7.5 ( 1/20 of the initial volume). The cells were lysed by sonication (5 pulses of 45 seconds) at 45 W on ice. The lysates were clarified by centrifugation at 10,000×g for 40 minutes at 4° C. Samples were diluted 5-fold in 50 mM sodium acetate pH 5.0, stored overnight at 4° C., after which they were centrifuged at 10,000×g for 30 minutes to clarify, and filtered through 0.45 μm filters. The samples were loaded onto a 5 ml Capto S sepharose cation exchange column (GE Healthcare) pre-equilibrated with 50 mM sodium acetate pH 5.0. The column was washed with 5 column volumes of 50 mM sodium acetate pH 5.0 to wash out unbound protein and a linear gradient of NaCl (0 to 500 mM) was used to elute the protein (over 16 CV) from the column. Fractions were assayed for β-lactamase activity using Centa (Calbiochem, Gibbstown, N.J.) or Nitrocefin (EMD Millipore chemicals, Darmstadt, Germany) as a reporter β-lactamase substrate for activity in the isolated fractions. Active fractions were pooled, concentrated and further purified by gel filtration chromatography on a Superdex 75 prep grade gel filtration column (GE Healthcare, Piscataway, N.J.) pre-equilibrated in 50 mM Hepes pH 7.5, 150 mM NaCl. Active fractions were pooled concentrated, quantitated by BCA protein determination (Thermo Scientific, Rockford, Ill.), dialyzed into PBS and frozen at −80° C. in 20% glycerol until use.
(§2) An equal volume of diluted enzyme stock was added, and the plates were incubated at 37° C. for 15 min. Nitrocefin was used as substrate for p99 AmpC, VIM-2 and OXA-1 and dispensed into each well at a final concentration of 100 μM. Absorbance at 486 nm was immediately monitored for 10 min using a Biotek Powerwave XS2 microplate spectrophotometer using the GEN5 softweare package (Biotek Instruments, Winooski Vt.). In an analogous fashion, imipenem was used as substrate for Kpc-2 and Cefotaxime was used for SHV-5, while changes in absorbance upon hydrolysis of the β-lactam ring were monitored at 300 nm and 260 nm respectively in UV-transparent 96-well microtiter assay plates. Maximum rates of hydrolysis were compared to those in control wells (without inhibitors), and percentages of enzyme inhibition were calculated for each concentration of inhibitor. The concentration of inhibitor needed to reduce the initial rate of hydrolysis of substrate by 50% (IC50) was calculated as the residual activity of β-lactamase at 486 nm using GraFit version 7 kinetics software package (Erithacus Software, Surrey, UK).

[2] = molecular target: T2, VIM-2 metallo β-lactamase (Pseudomonas aeruginosa, UniProt Q9K2N0); assay: β-Lactamase inhibition enzyme assay, VIM-2; details: Nitrocefin 100 μM as substrate, 486 nm; 15 min at 37° C. with enzyme, PBS pH 7.4; read-out: Class B VIM-2 IC50
T2 construct: made in house; host or cells: E. coli BL21(DE3)
Method: as §1
For Vim-2 metallo β-lactamase, the procedure was identical with the following exceptions, first the protein was not pH adjusted to pH 5 with 50 mM sodium acetate, second, the chromatography step was changed to a 5 ml Q sepharose anion exchange column pre-equilibrated with 50 mM Hepes pH 7.5, and elution of the protein was achieved by a linear gradient of NaCl (0-600 mM). Finally, the VIM-2 purification required a second run (3rd step) on the Q sepharose anion exchange column to achieve acceptable purity (>90%).
as §2

[3] = molecular target: T3, p99 AmpC β-lactamase (Enterobacter cloacae, UniProt P05364); assay: β-Lactamase inhibition enzyme assay, p99 AmpC
T3 construct: made in house; host or cells: E. coli BL21(DE3)
Method: as §1, §2

[4] = molecular target: T4, KPC-2 β-lactamase (Klebsiella pneumoniae, UniProt Q9F663); assay: β-Lactamase inhibition enzyme assay, KPC-2; details: imipenem as substrate, 300 nm; 15 min at 37° C. with enzyme, PBS pH 7.4; read-out: Class A KPC-2 IC50
T4 construct: made in house; host or cells: E. coli BL21(DE3)
Method: as §1, §2

[5] = molecular target: T5, SHV-5 β-lactamase (Klebsiella pneumoniae, UniProt P0A3M1); assay: β-Lactamase inhibition enzyme assay, SHV-5
T5 construct: made in house; host or cells: E. coli BL21(DE3)
Method: as §1, §2

T3 sequence (P05364 21-381): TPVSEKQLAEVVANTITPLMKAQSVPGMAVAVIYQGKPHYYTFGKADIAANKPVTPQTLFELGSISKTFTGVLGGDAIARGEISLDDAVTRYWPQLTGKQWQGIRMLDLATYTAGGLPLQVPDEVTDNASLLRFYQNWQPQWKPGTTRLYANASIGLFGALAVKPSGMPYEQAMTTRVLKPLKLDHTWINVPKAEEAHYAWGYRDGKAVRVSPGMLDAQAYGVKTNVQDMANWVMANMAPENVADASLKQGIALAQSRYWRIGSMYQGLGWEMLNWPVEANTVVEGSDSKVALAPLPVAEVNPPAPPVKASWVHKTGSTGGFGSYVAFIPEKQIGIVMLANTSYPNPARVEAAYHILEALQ
T5 sequence (P0A3M1 22-286): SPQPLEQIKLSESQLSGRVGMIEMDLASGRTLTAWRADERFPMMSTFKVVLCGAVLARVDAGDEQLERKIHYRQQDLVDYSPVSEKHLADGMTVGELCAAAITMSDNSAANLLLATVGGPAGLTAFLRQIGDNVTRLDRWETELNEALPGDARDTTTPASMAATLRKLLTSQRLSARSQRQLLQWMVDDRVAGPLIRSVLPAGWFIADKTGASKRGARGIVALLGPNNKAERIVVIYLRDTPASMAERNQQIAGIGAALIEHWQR
T4 sequence (Q9F663 25-293, looked up): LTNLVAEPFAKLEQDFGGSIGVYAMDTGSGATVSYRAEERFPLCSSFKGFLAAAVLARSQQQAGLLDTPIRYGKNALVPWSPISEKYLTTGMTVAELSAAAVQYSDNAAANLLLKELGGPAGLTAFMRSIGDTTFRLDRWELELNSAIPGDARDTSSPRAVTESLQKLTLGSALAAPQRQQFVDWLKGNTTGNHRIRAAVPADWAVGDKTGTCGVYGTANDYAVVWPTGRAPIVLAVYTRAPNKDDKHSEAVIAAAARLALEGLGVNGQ
T1 sequence (P13661 26-276): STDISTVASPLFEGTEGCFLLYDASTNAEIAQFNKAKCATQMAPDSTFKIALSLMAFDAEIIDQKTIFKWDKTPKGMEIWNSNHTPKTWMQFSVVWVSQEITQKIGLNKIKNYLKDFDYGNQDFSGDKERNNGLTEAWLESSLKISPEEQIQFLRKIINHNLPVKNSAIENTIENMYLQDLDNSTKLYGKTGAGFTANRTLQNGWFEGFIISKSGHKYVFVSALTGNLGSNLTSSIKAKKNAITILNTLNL

SMILES | pIC50 [1] | pIC50 [2] | pIC50 [3] | pIC50 [4] | pIC50 [5]
O=C(O)c1cccc2c1OB(O)[C@@H](NC(=O)c1cccc3[nH]ccc13)C2 [Example 32, (R)-2-Hydroxy-3-[(1H-indole-4-carbonyl)-amino]-3,4-dihydro-2H-benzo[e][1,2]oxaborinine-8-carboxylic acid] | > 7.00 | 6.00 to 7.00 | > 7.00 | > 7.00 | > 7.00
N=C(N)NCc1ccc(C(=O)N[C@H]2Cc3cccc(C(=O)O)c3OB2O)cc1CNC(=N)N [Example 25, (R)-3-(3,4-bis(guanidinomethyl)benzamido)-2-hydroxy-3,4-dihydro-2H-benzo[e][1,2]oxaborinine-8-carboxylic acid] | 6.00 to 7.00 | > 7.00 | > 7.00 | > 7.00 | 6.00 to 7.00
Cc1ccc(C(=O)N[C@H]2Cc3cccc(C(=O)O)c3OB2O)cc1NC(=O)[C@@H](N)CN [Example 22, (R)-3-(3-((S)-2,3-diaminopropanamido)-4-methylbenzamido)-2-hydroxy-3,4-dihydro-2H-benzo[e][1,2]oxaborinine-8-carboxylic acid] | > 7.00 | 6.00 to 7.00 | > 7.00 | 6.00 to 7.00 | 5.00 to 6.00
O=C(N[C@H]1Cc2cccc(C(=O)O)c2OB1O)c1ccc2ncccc2c1 [Example 28, (R)-2-hydroxy-3-(quinoline-6-carboxamido)-3,4-dihydro-2H-benzo[e][1,2]oxaborinine-8-carboxylic acid] | > 7.00 | 5.00 to 6.00 | > 7.00 | > 7.00 | > 7.00
NCc1cnc(C(=O)N[C@H]2Cc3cccc(C(=O)O)c3OB2O)cc1CN [Example 63] | > 7.00 | > 7.00 | > 7.00 | > 7.00 | 6.00 to 7.00
CN(C)Cc1ccc(C(=O)N[C@H]2Cc3cccc(C(=O)O)c3OB2O)cc1NC(=O)[C@@H](N)CN [Example 21, (R)-3-(3-((S)-2,3-diaminopropanamido)-4-((dimethylamino)methyl)benzamido)-2-hydroxy-3,4-dihydro-2H-benzo[e][1,2]oxaborinine-8-carboxylic acid] | > 7.00 | > 7.00 | > 7.00 | > 7.00 | 6.00 to 7.00
NCCN1Cc2ccc(CC(=O)N[C@H]3Cc4cccc(C(=O)O)c4OB3O)cc2C1 [Example 49, (R)-3-{2-[2-(2-Amino-ethyl)-2,3-dihydro-1H-isoindol-5-yl]-acetylamino}-2-hydroxy-3,4-dihydro-2H-benzo[e][1,2]oxaborinine-8-carboxylic acid] | > 7.00 | 6.00 to 7.00 | > 7.00 | > 7.00 | > 7.00
O=C(N[C@H]1Cc2cccc(C(=O)O)c2OB1O)c1ccc(-c2ncc[nH]2)cc1 [Example 47, (R)-2-Hydroxy-3-[4-(1H-imidazol-2-yl)-benzoylamino]-3,4-dihydro-2H-benzo[e][1,2]oxaborinine-8-carboxylic acid] | > 7.00 | 6.00 to 7.00 | > 7.00 | > 7.00 | > 7.00
O=C(N[C@H]1Cc2cccc(C(=O)O)c2OB1O)c1ccc2[nH]ccc2c1 [Example 26, (R)-2-hydroxy-3-(1H-indole-5-carboxamido)-3,4-dihydro-2H-benzo[e][1,2]oxaborinine-8-carboxylic acid] | > 7.00 | 6.00 to 7.00 | > 7.00 | > 7.00 | > 7.00
NCCNC(=O)c1ccccc1C(=O)N[C@H]1Cc2cccc(C(=O)O)c2OB1O [Example 54, (R)-3-(2-(2-aminoethylcarbamoyl)benzamido)-2-hydroxy-3,4-dihydro-2H-benzo[e][1,2]oxaborinine-8-carboxylic acid] | 5.00 to 6.00 | 5.00 to 6.00 | > 7.00 | 6.00 to 7.00 | 6.00 to 7.00
O=C(O)c1ccccc1C(=O)N[C@H]1Cc2cccc(C(=O)O)c2OB1O [Example 53, (R)-3-(2-carboxybenzamido)-2-hydroxy-3,4-dihydro-2H-benzo[e][1,2]oxaborinine-8-carboxylic acid] | > 7.00 | 5.00 to 6.00 | > 7.00 | 6.00 to 7.00 | 6.00 to 7.00
CC(C)NCc1cc(C(=O)N[C@H]2Cc3cccc(C(=O)O)c3OB2O)ccc1CN [Example 55, (R)-3-(4-(aminomethyl)-3-((isopropylamino)methyl)benzamido)-2-hydroxy-3,4-dihydro-2H-benzo[e][1,2]oxaborinine-8-carboxylic acid] | 6.00 to 7.00 | 6.00 to 7.00 | 6.00 to 7.00 | 5.00 to 6.00 | 6.00 to 7.00
NCCNc1ccc(CC(=O)N[C@H]2Cc3cccc(C(=O)O)c3OB2O)cc1 [Example 57, (R)-3-(2-(4-(2-aminoethylamino)phenyl)acetamido)-2-hydroxy-3,4-dihydro-2H-benzo[e][1,2]oxaborinine-8-carboxylic acid] | > 7.00 | 5.00 to 6.00 | > 7.00 | > 7.00 | > 7.00
O=C(N[C@H]1Cc2cccc(C(=O)O)c2OB1O)c1cnc2[nH]ccc2c1 [Example 35, (R)-2-Hydroxy-3-[(1H-pyrrolo[2,3-b]pyridine-5-carbonyl)-amino]-3,4-dihydro-2H-benzo[e][1,2]oxaborinine-8-carboxylic acid] | > 7.00 | 6.00 to 7.00 | > 7.00 | > 7.00 | > 7.00
N=C(N)NCc1cc(CNC(=N)N)cc(C(=O)N[C@H]2Cc3cccc(C(=O)O)c3OB2O)c1 [Example 45, (R)-3-(3,5-bis(guanidinomethyl)benzamido)-2-hydroxy-3,4-dihydro-2H-benzo[e][1,2]oxaborinine-8-carboxylic acid] | > 7.00 | > 7.00 | > 7.00 | > 7.00 | 6.00 to 7.00
O=C(N[C@H]1Cc2cccc(C(=O)O)c2OB1O)c1ccc(O)c(O)c1 [Example 39, (R)-3-(3,4-dihydroxybenzamido)-2-hydroxy-3,4-dihydro-2H-benzo[e][1,2]oxaborinine-8-carboxylic acid] | > 7.00 | 6.00 to 7.00 | > 7.00 | > 7.00 | 6.00 to 7.00
Cc1ccc(C(=O)N[C@H]2Cc3cccc(C(=O)O)c3OB2O)cc1N [Example 23, (R)-3-(3-amino-4-methylbenzamido)-2-hydroxy-3,4-dihydro-2H-benzo[e][1,2]oxaborinine-8-carboxylic acid] | > 7.00 | 6.00 to 7.00 | > 7.00 | > 7.00 | > 7.00
O=C(N[C@H]1Cc2cccc(C(=O)O)c2OB1O)c1ccc(-c2ccncc2)cc1 [Example 27, (R)-2-hydroxy-3-(4-(pyridin-4-yl)benzamido)-3,4-dihydro-2H-benzo[e][1,2]oxaborinine-8-carboxylic acid] | > 7.00 | 5.00 to 6.00 | > 7.00 | > 7.00 | > 7.00
